The values below are quoted from earlier work in US20030198619A1, “Formulation and dosage form for increasing oral bioavailability of hydrophilic macromolecules” (priority 2001, published 2003).

Read-outs that look alike come from different tables or passages of the source.

For data set [1] the following is noted: in vivo.

`NC(=O)CC[C@@H]1NC(=O)[C@H](Cc2ccccc2)NC(=O)[C@H](Cc2ccc(O)cc2)NC(=O)CCSSC[C@@H](C(=O)N2CCC[C@H]2C(=O)N[C@H](CCCN=C(N)N)C(=O)NCC(N)=O)NC(=O)[C@H](CC(N)=O)NC1=O` [dDAVP, Desmopressin]: in data set [1], the oral bioavailability result is “about 0.15%”.
Turning to pentosan polysulfate sodium [PPS], the “elimination half-life in urine” value (after oral administration) is 4.8 h. The oral bioavailability result (in humans) was “approximately 3%”. Under “mean value following IV injection”, the elimination half-life was 24 h.
